Test results published in ChEMBL document CHEMBL1201862, “PubChem BioAssay data set” (2004).
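Cultured in 96-well plates, cells were exposed to test compound for 48 hours across five concentrations. Here, GI50 denotes the concentration required for 50% inhibition of growth.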 Calls of active or inactive are those of the source. Rule as the data show it: active = GI50 up to about 1.1 µM and inactive = higher.

What was measured:
Assay in all cases: NCI tumour cell line growth inhibition, 48 h
HOP-92 = test system: HOP-92
DU-145 = test system: DU-145
SNB-75 = test system: SNB-75
NCI-H226 = test system: NCI-H226
HL-60 = test system: HL-60
786-0 = test system: 786-0
CCRF-CEM = test system: CCRF-CEM
A498 = test system: A498
K562 = test system: K562
HOP-62 = test system: HOP-62
OVCAR-3 = test system: OVCAR-3
MDA-MB-231 = test system: MDA-MB-231
KM12 = test system: KM12
UO-31 = test system: UO-31
M14 = test system: M14
OVCAR-8 = test system: OVCAR-8
SK-MEL-5 = test system: SK-MEL-5
T47D = test system: T47D
UACC-257 = test system: UACC-257
SF-295 = test system: SF-295
SF-268 = test system: SF-268
BT-549 = test system: BT-549
COLO 205 = test system: COLO 205
OVCAR-5 = test system: OVCAR-5
CAKI-1 = test system: CAKI-1
SNB-19 = test system: SNB-19
TK-10 = test system: TK-10
SR = test system: SR
MDA-N = test system: MDA-N
SF-539 = test system: SF-539
MDA-MB-435 = test system: MDA-MB-435
PC-3 = test system: PC-3
SN12C = test system: SN12C
LOX IMVI = test system: LOX IMVI
IGROV-1 = test system: IGROV-1
NCI-H460 = test system: NCI-H460
MCF7 = test system: MCF7
UACC-62 = test system: UACC-62
ACHN = test system: ACHN
SK-OV-3 = test system: SK-OV-3
A549 = test system: A549
NCI-H23 = test system: NCI-H23
SK-MEL-28 = test system: SK-MEL-28
HCT-116 = test system: HCT-116
EKVX = test system: EKVX
OVCAR-4 = test system: OVCAR-4
Malme-3M = test system: Malme-3M
SK-MEL-2 = test system: SK-MEL-2
HCT-15 = test system: HCT-15
U-251 = test system: U-251
RXF 393 = test system: RXF 393
RPMI-8226 = test system: RPMI-8226
NCI-H522 = test system: NCI-H522
NCI/ADR-RES = test system: NCI/ADR-RES
HCC 2998 = test system: HCC 2998
SW-620 = test system: SW-620
HT-29 = test system: HT-29
MOLT-4 = test system: MOLT-4
Hs-578T = test system: Hs-578T

## CN(C)CCCNC(=O)c1cn2c(ccc3sc4ccccc4c(=O)c32)n1
HOP-92
  GI50: 2.15 µM (inactive)
DU-145
  GI50: 12.3 µM (inactive)
SNB-75
  GI50: 14.3 µM (inactive)
NCI-H226
  GI50: 17.3 µM (inactive)
HL-60
  GI50: 3.6 µM (inactive)
786-0
  GI50: 3.06 µM (inactive)
CCRF-CEM
  GI50: 2.05 µM (inactive)
A498
  GI50: 14.6 µM (inactive)
K562
  GI50: 1.79 µM (inactive)
HOP-62
  GI50: 12.3 µM (inactive)
OVCAR-3
  GI50: 10.7 µM (inactive)
MDA-MB-231
  GI50: 1.31 µM (inactive)
KM12
  GI50: 12 µM (inactive)
UO-31
  GI50: 10.8 µM (inactive)
M14
  GI50: 12.9 µM (inactive)
OVCAR-8
  GI50: 4.85 µM (inactive)
SK-MEL-5
  GI50: 1.55 µM (inactive)
T47D
  GI50: 18.3 µM (inactive)
UACC-257
  GI50: 15.1 µM (inactive)
SF-295
  GI50: 5.36 µM (inactive)
SF-268
  GI50: 3.82 µM (inactive)
BT-549
  GI50: 18.5 µM (inactive)
COLO 205
  GI50: 3.77 µM (inactive)
OVCAR-5
  GI50: 10.6 µM (inactive)
CAKI-1
  GI50: 3.28 µM (inactive)
SNB-19
  GI50: 15.1 µM (inactive)
TK-10
  GI50: 16.5 µM (inactive)
SR
  GI50: 1.95 µM (inactive)
MDA-N
  GI50: 5.09 µM (inactive)
SF-539
  GI50: 16.7 µM (inactive)
MDA-MB-435
  GI50: 13.6 µM (inactive)
PC-3
  GI50: 4.8 µM (inactive)
SN12C
  GI50: 4.56 µM (inactive)
LOX IMVI
  GI50: 1.41 µM (inactive)
IGROV-1
  GI50: 10.6 µM (inactive)
NCI-H460
  GI50: 1.13 µM (inactive)
MCF7
  GI50: 3.73 µM (inactive)
UACC-62
  GI50: 17.9 µM (inactive)
ACHN
  GI50: 11.8 µM (inactive)
SK-OV-3
  GI50: 16.9 µM (inactive)
A549
  GI50: 9.14 µM (inactive)
NCI-H23
  GI50: 13.4 µM (inactive)
SK-MEL-28
  GI50: 5.46 µM (inactive)
HCT-116
  GI50: 1.53 µM (inactive)
EKVX
  GI50: 14.4 µM (inactive)
OVCAR-4
  GI50: 13.6 µM (inactive)
Malme-3M
  GI50: 8.99 µM (inactive)
SK-MEL-2
  GI50: 21.5 µM (inactive)
HCT-15
  GI50: 2.2 µM
U-251
  GI50: 1.63 µM (inactive)
RXF 393
  GI50: 5.94 µM (inactive)
RPMI-8226
  GI50: 1.73 µM (inactive)
NCI-H522
  GI50: 12.4 µM (inactive)
NCI/ADR-RES
  GI50: 2.95 µM (inactive)
HCC 2998
  GI50: 11.7 µM (inactive)
SW-620
  GI50: 1.51 µM (inactive)
HT-29
  GI50: 1.3 µM (inactive)
MOLT-4
  GI50: 0.738 µM (active)
Hs-578T
  GI50: 15.7 µM (inactive)
